# In patent US9587225B2, “Low-molecular-compound for improving production, maintenance and proliferation of pluripotent stem cells, composition comprising the same, and culture method” (KOREA RESEARCH INSTITUTE OF BIOSCIENCE AND BIOTECHNOLOGY, priority 2012, dated 2017):
# Tested on: Mouse embryonic fibroblasts (OG2-MEF; hemizygous for the Oct4-GFP transgene)
# Assay: Reprogramming of mouse embryonic fibroblasts, Oct4-GFP colony count
# Format: cell-based
# Conditions: OG2-MEF transfected with OSKM, after 15 days, compared to control group
# Experimental: FIG. 1 is a process of screening mouse cell reprogramming factors using analog library screening of novel trans-3-indoleacrylic acid-based compounds. In order to screen low-molecular-weight compounds that promote the production of reprogrammed stem cells, mouse embryonic stem cells (OG2-MEF; hemizygous for the Oct4-GFP transgene) were transduced with reprogramming viruses (Oct4, Sox2, Klf4, and c-Myc). After 5 days, the cells were seeded on gelatin-coated plates and then cultured in mouse embryonic stem cell culture media containing each of low-molecular-weight compounds until colonies having a morphology similar to that of mouse embryonic stem cells were formed. After 15 days, the number of colonies expressing endogenous Oct4 GFP fluorescence was measured, and compounds that increased the efficiency of reprogramming compared to that of a control group were selected. […] Oct4 (O), Sox2 (S), Klf4 (K), and cMyc (M). FIG. 1B is a graph showing the increase in efficiency of reprogramming by RSC-133 and ID-558 among screened compounds. The values shown on the graph are mean values. The data are expressed as mean±SD (n=3).
# The OSKM reprogramming factor virus was produced according to the method of Example 3. […] At 15 days after the transfection, the number of either colonies showing AP activity or colonies expressing endogenous Oct4 GFP fluorescence was measured to determine the efficiency of reprogramming.
# To discover low-molecular-weight compounds that are involved in the reprogramming process, analog library screening of novel trans-3-indoleacrylic acid-based compounds was performed in mouse cells. Mouse embryonic fibroblasts (OG2-MEF: hemizygous for the Oct4-GFP transgene) were transfected with reprogramming viruses of Oct4, Sox2, Klf4 and c-Myc (OSKM), and after 5 days, the cells were seeded on gelatin-coated 12-well plates and incubated with mouse embryonic stem cell culture medium containing each of low-molecular-weight compounds until colonies having a morphology similar to that mouse stem cells were formed so that endogenous Oct4 GFP fluorescence was expressed (FIG. 1A). […]
compound,measurement,value
"CN(C)C(=O)c1ccc(O)c(NC(=O)C=Cc2c[nH]c3ccccc23)c1 [ID-558, 3-[3-(1H-indol-3-yl)-acrylamido]-4-hydroxy-N,N-dimethylbenzamide]",efficiency of reprogramming (number of colonies expressing endogenous Oct4 GFP fluorescence),showed the effect of increasing the efficiency of reprogramming
